Tested on: 648629-189-R-J1-PDC spheroids with HUVEC/MSC, viability
Test: Anticancer human tumor 648629-189-R-J1-PDC patient-derived bladder carcinoma cell line growth inhibition [PI3K]
Details: for IC50: curve of first compound; for viability, T/C: stronger effect = lower value
Summary of the method: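 Targeted small molecules plus PI3K inhibitors, half-log dose series from Cmax (default top 10 microM), were applied to heterotypic spheroids of cancer cells with HUVEC and MSCs. Viability indicated growth inhibition.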

[1] = second compound 0.0316 µM, first compound 0.0316 µM
[2] = second compound 0.0316 µM, first compound 0.1 µM
[3] = second compound 0.0316 µM, first compound 0.316 µM
[4] = second compound 0.0316 µM, first compound 1 µM
[5] = second compound 0.0316 µM, first compound 3.16 µM
[6] = second compound 0.0316 µM, first compound 10 µM
[7] = second compound 0.1 µM, first compound 0.0316 µM
[8] = second compound 0.1 µM, first compound 0.1 µM
[9] = second compound 0.1 µM, first compound 0.316 µM
[10] = second compound 0.1 µM, first compound 1 µM
[11] = second compound 0.1 µM, first compound 3.16 µM
[12] = second compound 0.1 µM, first compound 10 µM
[13] = second compound 0.316 µM, first compound 0.0316 µM
[14] = second compound 0.316 µM, first compound 0.1 µM
[15] = second compound 0.316 µM, first compound 0.316 µM
[16] = second compound 0.316 µM, first compound 1 µM
[17] = second compound 0.316 µM, first compound 3.16 µM
[18] = second compound 0.316 µM, first compound 10 µM
[19] = second compound 1 µM, first compound 0.0316 µM
[20] = second compound 1 µM, first compound 0.1 µM
[21] = second compound 1 µM, first compound 0.316 µM
[22] = second compound 1 µM, first compound 1 µM
[23] = second compound 1 µM, first compound 3.16 µM
[24] = second compound 1 µM, first compound 10 µM
[25] = second compound 3.16 µM, first compound 0.0316 µM
[26] = second compound 3.16 µM, first compound 0.1 µM
[27] = second compound 3.16 µM, first compound 0.316 µM
[28] = second compound 3.16 µM, first compound 1 µM
[29] = second compound 3.16 µM, first compound 3.16 µM
[30] = second compound 3.16 µM, first compound 10 µM
[31] = second compound 10 µM, first compound 0.0316 µM
[32] = second compound 10 µM, first compound 0.1 µM
[33] = second compound 10 µM, first compound 0.316 µM
[34] = second compound 10 µM, first compound 1 µM
[35] = second compound 10 µM, first compound 3.16 µM
[36] = second compound 10 µM, first compound 10 µM
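Also: spheroids exposed to agents for seven days before reading.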
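For viability, T/C in this document: percent of vehicle control luminescence where 100% = DMSO treated spheroids.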

`C#Cc1c(F)ccc2cc(O)cc(-c3ncc4c(N5CC6CCC(C5)N6)nc(OCC56CCCN5CC(F)C6)nc4c3F)c12` (stereo unspecified) + Cc1nc(NC(=O)N2CCCC2C(N)=O)sc1-c1ccnc(C(C)(C)C(F)(F)F)c1 was tested. Which IC50 (second compound 0.0316 µM) did it give?
The IC50 was over 10 µM.

And the IC50 (second compound 0.1 µM)?
Its IC50 is over 10 µM.

What about the IC50 (second compound 0.316 µM) of the same compound?
The IC50 was over 10 µM.

What about the IC50 (second compound 1 µM) of the same compound?
Its IC50 is over 10 µM.

What about the IC50 (second compound 3.16 µM) of the same compound?
The IC50 was over 10 µM.

What about the IC50 (second compound 10 µM) of the same compound?
The IC50 was under 0.0316 µM.

And the viability, T/C [1]?
Its viability, T/C is 100%.

And the viability, T/C [2]?
The viability, T/C was 103%.

What about the viability, T/C [3] of the same compound?
The viability, T/C was 103%.

And the viability, T/C [4]?
The viability, T/C was 99.6%.

And the viability, T/C [5]?
Its viability, T/C is 89.3%.

And the viability, T/C [6]?
The viability, T/C was 91.3%.

And the viability, T/C [7]?
The viability, T/C was 101%.

What about the viability, T/C [8] of the same compound?
The viability, T/C was 96.8%.

And the viability, T/C [9]?
The viability, T/C was 97.5%.

What about the viability, T/C [10] of the same compound?
The viability, T/C was 87.4%.

What about the viability, T/C [11] of the same compound?
The viability, T/C was 95.1%.

And the viability, T/C [12]?
The viability, T/C was 91.4%.

What about the viability, T/C [13] of the same compound?
Its viability, T/C is 90.7%.

And the viability, T/C [14]?
Its viability, T/C is 88.1%.

And the viability, T/C [15]?
Its viability, T/C is 87%.

And the viability, T/C [16]?
Its viability, T/C is 86.1%.

And the viability, T/C [17]?
Its viability, T/C is 80.4%.

And the viability, T/C [18]?
The viability, T/C was 79.5%.

And the viability, T/C [19]?
Its viability, T/C is 77.9%.

What about the viability, T/C [20] of the same compound?
Its viability, T/C is 77.4%.

What about the viability, T/C [21] of the same compound?
The viability, T/C was 77%.

What about the viability, T/C [22] of the same compound?
Its viability, T/C is 72.4%.

What about the viability, T/C [23] of the same compound?
The viability, T/C was 68.9%.

And the viability, T/C [24]?
The viability, T/C was 70.5%.

What about the viability, T/C [25] of the same compound?
Its viability, T/C is 52.7%.

And the viability, T/C [26]?
The viability, T/C was 56.1%.

What about the viability, T/C [27] of the same compound?
The viability, T/C was 55%.

What about the viability, T/C [28] of the same compound?
The viability, T/C was 52.7%.

What about the viability, T/C [29] of the same compound?
Its viability, T/C is 50.6%.

What about the viability, T/C [30] of the same compound?
The viability, T/C was 54.9%.

And the viability, T/C [31]?
The viability, T/C was 36.3%.

What about the viability, T/C [32] of the same compound?
The viability, T/C was 34.2%.

And the viability, T/C [33]?
Its viability, T/C is 34.5%.

And the viability, T/C [34]?
Its viability, T/C is 34.5%.

And the viability, T/C [35]?
Its viability, T/C is 31.2%.

And the viability, T/C [36]?
The viability, T/C was 5.29%.

What does the source list for `CC(Cn1ccc(-c2ccc(C#N)c(Cl)c2)n1)NC(=O)c1cc(C(C)O)[nH]n1` (stereo unspecified) + Cc1nc(NC(=O)N2CCCC2C(N)=O)sc1-c1ccnc(C(C)(C)C(F)(F)F)c1?
IC50 (second compound 0.0316 µM): > 10 µM; IC50 (second compound 0.1 µM): > 10 µM; IC50 (second compound 0.316 µM): > 10 µM; IC50 (second compound 1 µM): > 10 µM; IC50 (second compound 3.16 µM): > 10 µM; IC50 (second compound 10 µM): < 0.0316 µM; viability, T/C [1]: 86.5%; viability, T/C [2]: 95.8%; viability, T/C [3]: 95.9%; viability, T/C [4]: 87.5%; viability, T/C [5]: 82.8%; viability, T/C [6]: 67.1%; viability, T/C [7]: 92.4%; viability, T/C [8]: 91.8%; viability, T/C [9]: 87.7%; viability, T/C [10]: 89.6%; viability, T/C [11]: 77.7%; viability, T/C [12]: 66.2%; viability, T/C [13]: 91.5%; viability, T/C [14]: 84.6%; viability, T/C [15]: 87.3%; viability, T/C [16]: 81.5%; viability, T/C [17]: 78.1%; viability, T/C [18]: 68.2%; viability, T/C [19]: 70.8%; viability, T/C [20]: 74.2%; viability, T/C [21]: 68.1%; viability, T/C [22]: 69.9%; viability, T/C [23]: 63.9%; viability, T/C [24]: 62.3%; viability, T/C [25]: 53.1%; viability, T/C [26]: 54.6%; viability, T/C [27]: 47.4%; viability, T/C [28]: 51.5%; viability, T/C [29]: 57.1%; viability, T/C [30]: 52.6%; viability, T/C [31]: 38.5%; viability, T/C [32]: 38.6%; viability, T/C [33]: 35.4%; viability, T/C [34]: 40.4%; viability, T/C [35]: 36.9%; viability, T/C [36]: 37.4%

How did the IC50 (second compound 0.0316 µM) turn out when `CC1(C)CCC(Nc2ncc(C(F)(F)F)c(-c3c[nH]c4c(P(C)(C)=O)c(C#N)ccc34)n2)CN1` (stereo unspecified) + Cc1nc(NC(=O)N2CCCC2C(N)=O)sc1-c1ccnc(C(C)(C)C(F)(F)F)c1 was run?
Its IC50 is under 0.0316 µM.

What about the IC50 (second compound 0.1 µM) of the same compound?
Its IC50 is under 0.0316 µM.

What about the IC50 (second compound 0.316 µM) of the same compound?
The IC50 was under 0.0316 µM.

What about the IC50 (second compound 1 µM) of the same compound?
Its IC50 is under 0.0316 µM.

What about the IC50 (second compound 3.16 µM) of the same compound?
The IC50 was under 0.0316 µM.

And the IC50 (second compound 10 µM)?
Its IC50 is under 0.0316 µM.

What about the viability, T/C [1] of the same compound?
Its viability, T/C is 29.4%.

And the viability, T/C [2]?
Its viability, T/C is 27.6%.

And the viability, T/C [3]?
The viability, T/C was 25.6%.

What about the viability, T/C [4] of the same compound?
Its viability, T/C is 33.7%.

And the viability, T/C [5]?
The viability, T/C was 40.7%.

And the viability, T/C [6]?
Its viability, T/C is 5.12%.

And the viability, T/C [7]?
The viability, T/C was 24.7%.

And the viability, T/C [8]?
Its viability, T/C is 27.4%.

And the viability, T/C [9]?
Its viability, T/C is 29.3%.

And the viability, T/C [10]?
The viability, T/C was 38.2%.

And the viability, T/C [11]?
The viability, T/C was 40.9%.

And the viability, T/C [12]?
The viability, T/C was 4.14%.

What about the viability, T/C [13] of the same compound?
Its viability, T/C is 27.6%.

And the viability, T/C [14]?
Its viability, T/C is 24.7%.

And the viability, T/C [15]?
The viability, T/C was 30.5%.

And the viability, T/C [16]?
The viability, T/C was 27.9%.

And the viability, T/C [17]?
The viability, T/C was 36.4%.

And the viability, T/C [18]?
The viability, T/C was 4.18%.

And the viability, T/C [19]?
Its viability, T/C is 26.8%.

And the viability, T/C [20]?
Its viability, T/C is 23.9%.

And the viability, T/C [21]?
Its viability, T/C is 26%.

What about the viability, T/C [22] of the same compound?
The viability, T/C was 27.4%.

What about the viability, T/C [23] of the same compound?
Its viability, T/C is 27.4%.

What about the viability, T/C [24] of the same compound?
Its viability, T/C is 2.87%.

What about the viability, T/C [25] of the same compound?
The viability, T/C was 26%.

What about the viability, T/C [26] of the same compound?
The viability, T/C was 23.1%.

What about the viability, T/C [27] of the same compound?
The viability, T/C was 21%.

And the viability, T/C [28]?
Its viability, T/C is 22.2%.

And the viability, T/C [29]?
The viability, T/C was 24.7%.

And the viability, T/C [30]?
The viability, T/C was 1.62%.

What about the viability, T/C [31] of the same compound?
Its viability, T/C is 21.5%.

And the viability, T/C [32]?
The viability, T/C was 17.1%.

What about the viability, T/C [33] of the same compound?
The viability, T/C was 18.1%.

And the viability, T/C [34]?
Its viability, T/C is 16.6%.

And the viability, T/C [35]?
Its viability, T/C is 15.5%.

And the viability, T/C [36]?
The viability, T/C was 0.41%.

From PubChem BioAssay AID1963974 (Molecular Pharmacology Branch, DTP, NCI, 2024)
